Results on one compound are retold here after patent US12384923B2, “Method of treatment of a surface” (Conopco, Inc., priority 2018, dated 2025).

In this experiment the test system is Raphidocelis subcapitata. The experiment is described as follows: Algal growth inhibition by lactam (absorbance at 680 nm of algal cultures in 6-well plates). The class given is cell-based. How it is done:
The freshwater algae Raphidocelis subcapitata was purchased from Culture Collection of Algae and Protozoa (CCAP 278/4). The algae was cultivated in commercial Gibco BG-11 Media. A bespoke built UV exposure cabinet was used for cultivation. The UV bulbs were replaced by light bulbs (Osram L 8W I535 white). The experiments were performed in sterile 6-well microtiter plates made from polystyrene under static conditions and room temperature. The light-dark cycle was 9 h dark and 15 h light. The quantification was done spectrophotometrically in the 6-well plate by using absorbance measurements. A wavelength scan was done to measure the absorbance maximum of the algaea. […] Since the algaea tend to sediment the plate was obitally shaken to bring the cells in suspension before measuring. Measuring was performed using a Varioscan plate reader for microtiter plates.
In this experiment, the algal cultures were treated with lactam at levels of 10 μM to 200 μM as well as two control plates, one untreated, and one treated with solvent (DMSO) only. The specific levels of lactam measured were 10 μM, 20 μM, 30 μM, 40 μM, 50 μM, 100 μM, 150 μM, 200 μM would equate to levels of from 2 ppm (10 μM) to 40 ppm (200 μM), and to wt. % of 0.0002 wt. % (10 μM) to 0.004 wt. % (200 μM). The lactam was provided in a DMSO solvent to the plates. The rate of growth of the algal culture was measured after 12 days by absorbance value.
In this experiment, the algal cultures were treated with lactam at levels of 0.01 μM to 10 μM as well as two control plates, one untreated, and one treated with solvent (DMSO) only. The specific levels of lactam measured were 0.01 μM, 0.1 μM, 1 μM, 10 μM, this would equate to levels of from 0.002 ppm also defined as 2 ppb (0.01 μM) to 2 ppm (10 μM), and to wt. % of 0.0000002 wt. % (0.01 μM) to 0.0002 wt. % (10 μM). The lactam was provided in a DMSO solvent to the plates. The rate of growth of the algal culture was measured after 6 days by absorbance value.

As for `C=C1NC(=O)C=C1c1ccc(Cl)cc1` [4-(4-chlorophenyl)-5-methylene-pyrrol-2-one], the “Absorbance (680 nm)” value runs as follows: (Example 2, lactam 10 μM, after 12 days) 0.1; (Example 2, lactam 20 μM, after 12 days) 0.1; (Example 2, lactam 30 μM, after 12 days) 0.1; (Example 2, lactam 40 μM, after 12 days) 0.1; (Example 2, lactam 50 μM, after 12 days) 0.1; (Example 2, lactam 100 μM, after 12 days) 0.1. Further, the “Absorbance (680 nm)” value runs as follows: (Example 2, lactam 150 μM, after 12 days) 0.1; (Example 2, lactam 200 μM, after 12 days) 0.1; (Example 3, lactam 0.01 μM, after 6 days) 0.8; (Example 3, lactam 0.1 μM, after 6 days) 0.9; (Example 3, lactam 1 μM, after 6 days) 0.9; (Example 3, lactam 10 μM, after 6 days) 0.1. Moreover, the “algal growth inhibition (in words)” value runs as follows: (Example 2, lactam level of 10 μM (0.0002 wt. %) and above, 12 days) “very effective algal growth inhibition”; (Example 3, lactam 1 μM, 6 days) “no algal growth inhibition was seen”; (Example 3, lactam amount even lower than 1 μM (0.1 μM, 0.01 μM), 6 days) “no algal growth inhibition was seen”; (Example 3, lactam level of 10 μM (0.0002 wt. %) and above, 6 days) “very effective algal growth inhibition”.
